Experimental data from PMC2099433, “The binding site for neohesperidin dihydrochalcone at the human sweet taste receptor” (BMC Structural Biology, 2007).
Substitutions are numbered along the chain they refer to. Where a SMILES comes first, the peptide text is derived from it.

What was measured:
[1] = target: T1, hTAS1R2 + hTAS1R3 H721A^ex2 (Homo sapiens, UniProt Q7RTX0+Q8TE23, H721A); experiment: Calcium response (FLIPR), hTAS1R3 mutant coexpressed with hTAS1R2; type: cell-based; conditions: variant H721A^ex2; for Emax: read-out: maximal signal (% of wt)
T1 construct: expressed in transfected cells; host or cells: HEK293T cells stably expressing G16Gust44
T1 sequence (Q8TE23 20-839): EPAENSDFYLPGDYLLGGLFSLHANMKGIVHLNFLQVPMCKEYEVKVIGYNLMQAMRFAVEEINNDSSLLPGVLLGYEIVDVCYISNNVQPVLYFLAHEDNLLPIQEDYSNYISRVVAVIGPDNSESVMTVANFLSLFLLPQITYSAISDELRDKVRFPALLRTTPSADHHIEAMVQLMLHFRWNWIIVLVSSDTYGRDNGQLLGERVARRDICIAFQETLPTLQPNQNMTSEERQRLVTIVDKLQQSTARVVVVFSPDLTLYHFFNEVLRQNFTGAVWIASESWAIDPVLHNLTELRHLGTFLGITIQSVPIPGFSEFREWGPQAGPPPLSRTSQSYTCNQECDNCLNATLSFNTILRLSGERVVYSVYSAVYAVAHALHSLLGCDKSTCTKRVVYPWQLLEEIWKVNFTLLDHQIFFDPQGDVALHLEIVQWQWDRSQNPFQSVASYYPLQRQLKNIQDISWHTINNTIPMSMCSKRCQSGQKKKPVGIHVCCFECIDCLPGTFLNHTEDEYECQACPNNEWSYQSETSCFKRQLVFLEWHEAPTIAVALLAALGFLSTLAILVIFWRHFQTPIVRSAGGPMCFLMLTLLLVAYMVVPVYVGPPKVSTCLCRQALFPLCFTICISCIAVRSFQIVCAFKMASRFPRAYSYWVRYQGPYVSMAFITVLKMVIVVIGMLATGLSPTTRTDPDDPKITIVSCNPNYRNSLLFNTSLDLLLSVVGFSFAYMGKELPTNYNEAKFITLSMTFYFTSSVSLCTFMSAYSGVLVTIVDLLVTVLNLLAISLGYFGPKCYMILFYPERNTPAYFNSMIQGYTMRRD
T1 sequence (Q7RTX0 21-852 H721A): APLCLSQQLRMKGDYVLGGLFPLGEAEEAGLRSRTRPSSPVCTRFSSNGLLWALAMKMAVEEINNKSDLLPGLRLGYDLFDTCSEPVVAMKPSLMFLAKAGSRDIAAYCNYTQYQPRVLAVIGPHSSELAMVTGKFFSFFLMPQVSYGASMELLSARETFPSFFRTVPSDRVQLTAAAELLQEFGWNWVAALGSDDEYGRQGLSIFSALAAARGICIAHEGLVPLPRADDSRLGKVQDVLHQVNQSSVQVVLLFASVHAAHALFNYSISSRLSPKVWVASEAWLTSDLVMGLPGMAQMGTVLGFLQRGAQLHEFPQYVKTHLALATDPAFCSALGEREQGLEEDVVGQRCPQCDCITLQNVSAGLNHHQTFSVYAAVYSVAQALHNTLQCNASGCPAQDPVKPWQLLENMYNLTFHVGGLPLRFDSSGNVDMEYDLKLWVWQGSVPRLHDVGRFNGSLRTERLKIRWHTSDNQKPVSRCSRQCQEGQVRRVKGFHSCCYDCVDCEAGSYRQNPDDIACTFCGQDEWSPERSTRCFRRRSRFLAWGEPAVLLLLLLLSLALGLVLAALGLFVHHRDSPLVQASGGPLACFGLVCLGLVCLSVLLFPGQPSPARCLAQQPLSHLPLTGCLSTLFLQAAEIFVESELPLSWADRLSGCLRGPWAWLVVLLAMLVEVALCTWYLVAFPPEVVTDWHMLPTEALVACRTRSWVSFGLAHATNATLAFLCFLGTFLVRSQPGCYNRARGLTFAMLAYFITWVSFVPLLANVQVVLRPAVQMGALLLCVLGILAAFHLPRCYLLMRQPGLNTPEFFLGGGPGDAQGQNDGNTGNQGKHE
Method in brief: (§1)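 HEK293T cells stably expressing chimeric G16Gust44 were transiently transfected with C-terminally HSV-tagged hTAS1R2 and mutant hTAS1R3, then loaded 24 h later with Fluo4-AM for 1 h. Calcium mobilization after sweet-tastant application was read by FLIPR, mock-corrected and expressed as ΔF/F.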

[2] = target: T2, hTAS1R2 + hTAS1R3 H641A^3.33 (Homo sapiens, UniProt Q7RTX0+Q8TE23, H641A); experiment: as above; type: cell-based; conditions: variant H641A^3.33; for Emax: read-out: maximal signal (% of wt)
T2 construct: expressed in transfected cells; host or cells: HEK293T cells stably expressing G16Gust44
T2 sequence (Q8TE23 20-839): T1 sequence (Q8TE23 20-839)
T2 sequence (Q7RTX0 21-852 H641A): T1 sequence (Q7RTX0 21-852 H721A) with H621A, A701H
Method in brief: as §1

EC50 [1] [mM]	Emax [1] [%]	EC50 [2] [mM]	Emax [2] [%]	SMILES
0.8 ± 0.3	66 ± 10	1.2 ± 0.4	57 ± 22	COc1ccc(CCC(=O)c2c(O)cc(O[C@@H]3O[C@H](CO)[C@@H](O)[C@H](O)[C@H]3O[C@@H]3O[C@@H](C)[C@H](O)[C@@H](O)[C@H]3O)cc2O)cc1O [NHDC, neohesperidin dihydrochalcone]
1.6 ± 0.3	60 ± 40	1.8 ± 0.4	79 ± 70	COC(=O)[C@H](Cc1ccccc1)NC(=O)[C@@H](N)CC(=O)O [aspartame] (HELM PEPTIDE1{D.F.[CO[*:1]]}$$$$V2.0)
